Experiments:
P‐gp (P‐glycoprotein) = biological target: T1, P‐gp (P‐glycoprotein) (Homo sapiens, UniProt P08183); assay: transport inhibition in Caco-2 monolayers; format: cell-based
T1 construct: gene ABCB1; endogenous transporter in Caco-2 cell monolayers
Source text: transport inhibition in Caco-2 monolayers on P‐gp (P‐glycoprotein)

MATE1 = biological target: T2, MATE1 (Homo sapiens, UniProt Q96FL8); assay: uptake inhibition in HEK293 cells expressing the transporter; format: cell-based
T2 construct: gene SLC47A1; expressed in HEK293 cells
T2 sequence (Q96FL8 1-570): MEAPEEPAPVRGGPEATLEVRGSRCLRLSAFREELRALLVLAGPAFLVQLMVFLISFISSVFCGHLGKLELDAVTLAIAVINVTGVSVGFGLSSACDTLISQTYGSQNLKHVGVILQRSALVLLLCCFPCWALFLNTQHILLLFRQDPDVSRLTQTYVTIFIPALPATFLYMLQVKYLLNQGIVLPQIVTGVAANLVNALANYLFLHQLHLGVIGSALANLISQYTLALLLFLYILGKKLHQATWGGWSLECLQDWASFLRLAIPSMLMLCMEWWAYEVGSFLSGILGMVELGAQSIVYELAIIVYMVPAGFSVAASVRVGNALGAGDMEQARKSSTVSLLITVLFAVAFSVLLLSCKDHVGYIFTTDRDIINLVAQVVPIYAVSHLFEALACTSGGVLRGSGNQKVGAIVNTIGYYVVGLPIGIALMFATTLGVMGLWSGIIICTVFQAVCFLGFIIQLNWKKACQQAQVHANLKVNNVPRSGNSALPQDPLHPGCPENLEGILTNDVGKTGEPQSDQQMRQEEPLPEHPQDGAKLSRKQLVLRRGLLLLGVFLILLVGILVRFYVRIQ
Source text: uptake inhibition in HEK293 cells expressing the transporter on MATE1

CYP2C8 = biological target: T3, CYP2C8 (Homo sapiens, UniProt P10632); assay: CYP activity inhibition in human liver microsomes; format: biochemical; settings: read-out: IC50 (μM) / Direct inhibition
T3 construct: native enzyme in human liver microsomes
T3 sequence (P10632 1-490): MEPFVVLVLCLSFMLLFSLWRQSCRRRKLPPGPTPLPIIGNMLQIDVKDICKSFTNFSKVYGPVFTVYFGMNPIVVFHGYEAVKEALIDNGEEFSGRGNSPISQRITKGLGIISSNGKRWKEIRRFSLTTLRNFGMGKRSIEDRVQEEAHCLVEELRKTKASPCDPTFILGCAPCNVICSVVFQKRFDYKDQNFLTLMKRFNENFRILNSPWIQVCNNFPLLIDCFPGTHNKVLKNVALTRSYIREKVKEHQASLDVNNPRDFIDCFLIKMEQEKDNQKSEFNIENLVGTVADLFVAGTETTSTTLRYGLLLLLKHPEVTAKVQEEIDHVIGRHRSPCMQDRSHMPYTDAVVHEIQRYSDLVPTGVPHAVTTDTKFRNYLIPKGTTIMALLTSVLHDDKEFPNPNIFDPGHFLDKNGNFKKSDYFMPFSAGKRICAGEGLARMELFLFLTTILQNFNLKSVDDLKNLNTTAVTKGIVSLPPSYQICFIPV
Source text: CYP activity inhibition in human liver microsomes on CYP2C8

UGT1A3 = biological target: T4, UGT1A3 (Homo sapiens, UniProt P35503); assay: glucuronidation inhibition in human liver microsomes; format: biochemical; settings: substrate chenodeoxycholic acid; direct inhibition
T4 construct: native enzyme in human liver microsomes
T4 sequence (P35503 29-534): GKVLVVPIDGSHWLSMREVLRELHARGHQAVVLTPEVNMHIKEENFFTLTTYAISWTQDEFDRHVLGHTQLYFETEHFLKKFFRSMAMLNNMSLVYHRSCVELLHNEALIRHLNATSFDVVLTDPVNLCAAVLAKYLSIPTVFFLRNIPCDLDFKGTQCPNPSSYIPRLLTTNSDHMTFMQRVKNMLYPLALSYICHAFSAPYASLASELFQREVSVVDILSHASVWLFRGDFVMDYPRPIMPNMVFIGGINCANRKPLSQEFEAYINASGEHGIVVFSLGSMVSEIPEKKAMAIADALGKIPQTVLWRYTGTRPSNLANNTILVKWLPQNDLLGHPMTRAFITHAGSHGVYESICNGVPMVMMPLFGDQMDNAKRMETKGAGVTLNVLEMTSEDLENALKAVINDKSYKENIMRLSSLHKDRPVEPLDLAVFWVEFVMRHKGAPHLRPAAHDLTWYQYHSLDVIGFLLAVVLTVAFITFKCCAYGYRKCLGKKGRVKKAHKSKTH
Source text: glucuronidation inhibition in human liver microsomes on UGT1A3

OATP1B1 = biological target: T5, OATP1B1 (Homo sapiens, UniProt Q9Y6L6); assay: uptake inhibition in HEK293 cells expressing the transporter; format: cell-based
T5 construct: gene SLCO1B1; expressed in HEK293 cells
T5 sequence (Q9Y6L6 1-691): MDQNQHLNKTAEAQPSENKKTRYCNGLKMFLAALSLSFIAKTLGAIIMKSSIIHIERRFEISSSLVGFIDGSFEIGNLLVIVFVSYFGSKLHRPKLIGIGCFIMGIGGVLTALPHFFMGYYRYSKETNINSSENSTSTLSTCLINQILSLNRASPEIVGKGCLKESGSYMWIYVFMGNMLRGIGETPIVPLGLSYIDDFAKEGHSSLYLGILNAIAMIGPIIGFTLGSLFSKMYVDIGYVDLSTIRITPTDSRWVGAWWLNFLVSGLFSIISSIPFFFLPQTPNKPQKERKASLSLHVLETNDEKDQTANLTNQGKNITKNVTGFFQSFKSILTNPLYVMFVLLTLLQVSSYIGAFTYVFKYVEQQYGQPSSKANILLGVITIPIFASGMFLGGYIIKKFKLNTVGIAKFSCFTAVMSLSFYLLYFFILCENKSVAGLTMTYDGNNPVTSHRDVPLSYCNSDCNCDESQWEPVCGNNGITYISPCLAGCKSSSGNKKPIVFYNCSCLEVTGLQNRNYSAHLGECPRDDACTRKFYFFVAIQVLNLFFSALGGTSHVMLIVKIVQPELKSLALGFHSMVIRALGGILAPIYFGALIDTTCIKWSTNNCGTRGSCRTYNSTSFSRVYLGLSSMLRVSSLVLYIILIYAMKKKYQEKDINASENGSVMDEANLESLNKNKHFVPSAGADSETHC
Source text: uptake inhibition in HEK293 cells expressing the transporter on OATP1B1

MATE2‐K = biological target: T6, MATE2‐K (Homo sapiens, UniProt Q86VL8); assay: as above; format: cell-based
T6 construct: gene SLC47A2; expressed in HEK293 cells
T6 sequence (Q86VL8 1-566 isoform Q86VL8-3): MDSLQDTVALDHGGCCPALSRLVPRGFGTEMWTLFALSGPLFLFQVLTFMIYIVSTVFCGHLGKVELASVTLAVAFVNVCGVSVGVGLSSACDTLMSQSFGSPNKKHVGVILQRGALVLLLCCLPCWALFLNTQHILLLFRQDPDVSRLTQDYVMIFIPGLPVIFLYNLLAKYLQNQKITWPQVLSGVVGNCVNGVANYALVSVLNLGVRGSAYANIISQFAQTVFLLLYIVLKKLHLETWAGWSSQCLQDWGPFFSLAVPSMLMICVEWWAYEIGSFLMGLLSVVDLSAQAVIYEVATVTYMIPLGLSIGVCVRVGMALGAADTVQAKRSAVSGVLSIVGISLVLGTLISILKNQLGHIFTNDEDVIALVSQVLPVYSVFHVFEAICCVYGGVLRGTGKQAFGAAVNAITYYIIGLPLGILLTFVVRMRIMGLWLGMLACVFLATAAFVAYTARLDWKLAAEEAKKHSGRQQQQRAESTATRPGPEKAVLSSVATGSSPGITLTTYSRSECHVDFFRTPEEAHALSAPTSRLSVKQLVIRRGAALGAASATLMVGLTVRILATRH
Source text: uptake inhibition in HEK293 cells expressing the transporter on MATE2‐K

T1 sequence (P08183 whole entry): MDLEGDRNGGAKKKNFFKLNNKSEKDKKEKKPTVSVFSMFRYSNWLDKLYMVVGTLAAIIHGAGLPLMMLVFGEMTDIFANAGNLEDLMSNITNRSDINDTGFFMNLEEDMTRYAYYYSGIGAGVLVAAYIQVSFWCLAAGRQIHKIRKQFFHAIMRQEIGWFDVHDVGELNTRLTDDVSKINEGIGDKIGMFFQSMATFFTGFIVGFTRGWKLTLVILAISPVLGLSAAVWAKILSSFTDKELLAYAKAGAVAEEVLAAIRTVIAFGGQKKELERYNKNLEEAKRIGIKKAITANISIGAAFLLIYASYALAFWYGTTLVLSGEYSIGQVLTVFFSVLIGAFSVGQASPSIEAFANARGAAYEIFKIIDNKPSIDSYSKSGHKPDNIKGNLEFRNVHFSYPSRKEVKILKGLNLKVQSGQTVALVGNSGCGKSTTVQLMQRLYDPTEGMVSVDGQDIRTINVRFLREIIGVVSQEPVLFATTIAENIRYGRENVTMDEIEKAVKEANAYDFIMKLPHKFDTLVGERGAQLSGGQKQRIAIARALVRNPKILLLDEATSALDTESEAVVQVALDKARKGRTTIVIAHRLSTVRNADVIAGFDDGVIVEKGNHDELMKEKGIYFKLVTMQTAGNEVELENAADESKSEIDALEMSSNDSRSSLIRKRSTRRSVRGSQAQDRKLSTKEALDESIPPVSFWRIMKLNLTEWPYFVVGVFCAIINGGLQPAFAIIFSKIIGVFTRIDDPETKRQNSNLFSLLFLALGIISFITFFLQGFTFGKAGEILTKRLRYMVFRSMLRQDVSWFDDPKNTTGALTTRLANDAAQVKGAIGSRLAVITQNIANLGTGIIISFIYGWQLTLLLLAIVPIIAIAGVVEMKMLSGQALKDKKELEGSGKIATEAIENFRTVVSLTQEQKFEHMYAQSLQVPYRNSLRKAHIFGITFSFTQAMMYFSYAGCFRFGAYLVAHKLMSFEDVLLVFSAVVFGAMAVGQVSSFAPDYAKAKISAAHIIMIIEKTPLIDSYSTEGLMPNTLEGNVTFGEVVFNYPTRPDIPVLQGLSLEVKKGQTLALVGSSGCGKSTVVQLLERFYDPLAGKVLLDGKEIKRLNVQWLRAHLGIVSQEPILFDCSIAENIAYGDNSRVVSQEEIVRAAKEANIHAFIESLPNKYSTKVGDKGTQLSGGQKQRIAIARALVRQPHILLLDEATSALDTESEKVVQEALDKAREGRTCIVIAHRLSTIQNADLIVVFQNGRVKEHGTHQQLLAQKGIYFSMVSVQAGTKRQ

COC[C@H]1CN(C(=O)[C@]2(F)CN(C3CCCC3)C[C@H]2c2ccc(OC)cc2)C[C@@H]1c1ccc(C(F)(F)F)cc1N1CCC(C(=O)O)CC1 [dersimelagon]
IC50 (P‐gp (P‐glycoprotein)): 0.349 µM
IC50 (MATE1): 5.64 µM
IC50 (CYP2C8): 24.2 µM
IC50 (UGT1A3): 22.6 µM
IC50 (OATP1B1): 0.158 µM
IC50 (MATE2‐K): > 27.4 µM

Source: paper PMC11783400, “Assessment of Potential Drug–Drug Interactions for Novel Oral Melanocortin‐1 Receptor Agonist Dersimelagon” (Pharmacology Research & Perspectives, 2025)
